The values below come from article PMC4455059 (Nature Communications, 2015).

Where two headings read alike, the source gives them in different places. Non-standard residues stand in square brackets, D forms with d. Residues, ends and D or L forms follow the SMILES beside them. Phe(3-I) = N[C@@H](Cc1cccc(I)c1)C(=O)O; Phe(4-I) = N[C@@H](Cc1ccc(I)cc1)C(=O)O

For data set [1] the following is noted: cc_pd bond.
The next data set concerns α-chymotrypsin. In words: chymotrypsin-based protocol. Conditions: up to 6 h.
Data set [2] relates to SH-SY5Y cells. In words: Cytotoxicity, MTT assay. Type of data set: cell-based. The settings on record: 750 nM, 24 h incubation, triplicate, three independent experiments. An excerpt:
(§1) Finally, we studied the controlled labelling of the stapled peptides. The goal was to selectively attach a fluorophore to the C-terminal amino acid to trace cellular permeabilization and localization. Thus, we linked a Bodipy residue to cyclopeptide 2j through an amino spacer (the novel Bodipy construct was designed and prepared for this purpose, see Supplementary Fig. 16 and Supplementary Methods), to get the desired labelled-stapled peptide 2j Bodipy (Fig. 4c) in a convenient manner. […] The cells treated in this manner were analysed using confocal microscopy.
(§2) Supplementary Figure 17 Cytotoxicity of 1j-Bodipy and 2j-Bodipy peptides using the MTT assay. The toxicity assay was carried out as described in the literature.13 SH-SY5Y cells were transferred to 96-well plates (100 μL medium/well) at a density of 5000 cell/well. After 24 h, cells in triplicate were treated either with 1j-Bodipy or 2j-Bodipy (750 nM and 50 µM) or TRITON 0.2% as positive control for 24 h. Values are represented as means ± SD from three independent experiments.
(§3) Supplementary Figure 18 FACS analysis of SH-SY5Y cells upon incubation with 1j-Bodipy and 2j-Bodipy. For FACS analysis, SH-SY5Y cells were seeded on a plastic 24 well plate and cultured for 24 h. […] Fluorescence sorting was performed with a Gallios Beckman Coulter flow […]
A general note: Tetrazolium assays rely on reduction of a dye to a coloured formazan, in cell work by metabolically active cells.

Data set [3] deals with SH-SY5Y cells. In words: Cell penetration and localization (FACS flow cytometry and confocal microscopy). Type of data set: cell-based. Conditions: 750 nM.
Source text: as §1, §2, §3

A further data set deals with chymotrypsin. The experiment in a line: Proteolytic degradation assay (chymotrypsin-based protocol). Type of data set: in vitro ADME. Conditions: for protection towards enzymatic degradation (in words): chymotrypsin, after 5–6 h, HPLC-MS profiles; for half-life: chymotrypsin-based protocol (protocol of ref 51), HPLC-MS read-out, Fig. 4b, read-out: t1/2, proteolytic degradation. On the procedure: Figure 4 Bioactive stapled peptides, biochemical and cellular studies. (a) Structure of stapled peptides 2l (valorphin analogue) and 2m (baratin analogue). (b) Proteolytic degradation assay of stapled peptides 2g and 2h and their linear precursors 1g and 1h. (c) Structure of labelled-stapled peptide 2j Bodipy (left) and the corresponding confocal microscopy image of SH-SY5Y cells treated with compound 2j Bodipy (750 nM). Scale bar, 25 μm (right).
Next, we determined the proteolytic stability of a couple of meaningful stapled peptides, in comparison with their respective linear counterparts. We followed a chymotrypsin-based protocol, previously used to evaluate stapled peptides.

Another data set concerns the target ανβ3 integrin receptors (Homo sapiens, UniProt P05106+P06756). The experiment in a line: Inhibition of cellular adhesion (integrin antagonism). Type of data set: cell-based. An excerpt: However, it has to be considered that even linear analogues display a much lower potency (10–10^3 times, depending on the targeted integrin) than the parent cilengitide.
Data set [4] relates to several cancer cell lines. In words: Preliminary biological studies against several cancer cell lines. Type of data set: cell-based. The text has this:
Nevertheless, the protocol seems general and offers new possibilities for peptide-based conjugation.

Chain of ανβ3 integrin receptors (P06756 31-889 limits assumed): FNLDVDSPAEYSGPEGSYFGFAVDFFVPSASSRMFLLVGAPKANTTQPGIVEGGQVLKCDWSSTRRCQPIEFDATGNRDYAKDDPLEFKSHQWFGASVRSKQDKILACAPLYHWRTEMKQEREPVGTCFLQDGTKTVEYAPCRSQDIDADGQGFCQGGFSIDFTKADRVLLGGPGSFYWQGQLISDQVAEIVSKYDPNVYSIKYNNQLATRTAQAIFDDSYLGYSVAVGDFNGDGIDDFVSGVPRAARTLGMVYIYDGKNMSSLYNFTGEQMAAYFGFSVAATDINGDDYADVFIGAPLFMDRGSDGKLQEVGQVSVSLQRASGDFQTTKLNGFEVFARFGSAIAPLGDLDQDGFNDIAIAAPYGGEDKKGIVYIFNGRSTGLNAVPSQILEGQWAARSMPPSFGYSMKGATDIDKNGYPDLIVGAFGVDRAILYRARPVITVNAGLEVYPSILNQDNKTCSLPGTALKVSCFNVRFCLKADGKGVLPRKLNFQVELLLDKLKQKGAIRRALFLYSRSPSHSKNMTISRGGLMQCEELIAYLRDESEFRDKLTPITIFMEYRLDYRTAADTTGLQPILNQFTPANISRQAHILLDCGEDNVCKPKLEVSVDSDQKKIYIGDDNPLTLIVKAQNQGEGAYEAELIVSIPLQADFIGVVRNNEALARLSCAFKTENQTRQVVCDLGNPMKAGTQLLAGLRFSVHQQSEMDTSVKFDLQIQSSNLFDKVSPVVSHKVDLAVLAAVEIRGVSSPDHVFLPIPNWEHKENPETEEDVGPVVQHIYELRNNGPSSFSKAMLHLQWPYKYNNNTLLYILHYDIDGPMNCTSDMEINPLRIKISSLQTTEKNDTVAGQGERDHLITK
Chain of ανβ3 integrin receptors (P06756 891-1048 partner limits assumed): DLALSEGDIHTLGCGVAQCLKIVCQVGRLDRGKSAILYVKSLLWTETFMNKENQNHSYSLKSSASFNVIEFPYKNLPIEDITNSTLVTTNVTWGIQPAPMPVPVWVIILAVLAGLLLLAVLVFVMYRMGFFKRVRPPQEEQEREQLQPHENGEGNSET
Chain of ανβ3 integrin receptors (P05106 27-788): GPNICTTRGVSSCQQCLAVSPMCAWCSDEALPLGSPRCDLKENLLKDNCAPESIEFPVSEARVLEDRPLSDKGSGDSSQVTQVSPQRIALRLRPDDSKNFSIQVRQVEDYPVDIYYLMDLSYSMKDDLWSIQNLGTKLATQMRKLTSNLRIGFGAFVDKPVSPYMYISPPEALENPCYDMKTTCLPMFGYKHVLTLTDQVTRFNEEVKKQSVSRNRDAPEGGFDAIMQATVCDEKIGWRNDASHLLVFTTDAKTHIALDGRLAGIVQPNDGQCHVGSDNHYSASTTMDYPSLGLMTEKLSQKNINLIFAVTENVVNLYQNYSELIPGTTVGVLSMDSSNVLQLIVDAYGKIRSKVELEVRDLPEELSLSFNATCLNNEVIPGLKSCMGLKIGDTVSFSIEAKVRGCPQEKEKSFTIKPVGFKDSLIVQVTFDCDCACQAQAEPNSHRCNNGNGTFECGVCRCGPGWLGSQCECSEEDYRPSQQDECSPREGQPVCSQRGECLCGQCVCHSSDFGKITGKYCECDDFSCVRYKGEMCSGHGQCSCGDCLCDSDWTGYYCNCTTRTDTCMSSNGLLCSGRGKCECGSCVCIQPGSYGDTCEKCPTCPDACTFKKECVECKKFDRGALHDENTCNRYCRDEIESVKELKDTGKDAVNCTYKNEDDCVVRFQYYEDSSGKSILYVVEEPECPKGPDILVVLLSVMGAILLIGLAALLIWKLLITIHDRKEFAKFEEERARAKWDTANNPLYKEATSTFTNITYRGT

The compound `CC(=O)N[C@@H](C)C(=O)N[C@H]1Cc2cccc(c2)-c2[nH]c3ccccc3c2C[C@@H](C(=O)N[C@@H](C)C(=O)O)NC(=O)[C@H](C(C)C)NC1=O` [Ac-Ala-Phe(3-I)-Val-Trp-Ala-OH] gave a ring closure, conversion in data set [1] (from Ac-Ala-Phe(3-I)-Val-Trp-Ala-OH, 14-membered ring, Pd(OAc)2 5 mol%/AgBF4/TFA, MW 20 min, DMF, 55.0 mM, 90.0 °C) of 71%.

As to Ac-[Phe(3-I)]RGDW-NH2, in the data set with α-chymotrypsin, the cleaved bond result is listed as “m-I-Phe-Arg”.

Compound `CC(=O)N[C@@H](C)C(=O)N[C@H]1Cc2ccc(O)c(c2)-c2[nH]c3ccccc3c2C[C@@H](C(=O)N[C@@H](C)C(=O)O)NC(=O)[C@H](C)NC(=O)[C@H](C)NC1=O` [Ac-Ala-Tyr(3-I)-Ala-Ala-Trp-Ala-OH] had a ring closure, conversion in data set [1] (from Ac-Ala-Tyr(3-I)-Ala-Ala-Trp-Ala-OH, 17-membered ring, Pd(OAc)2 5 mol%/AgBF4/2-NO2BzOH, MW 15 min, DMF:PBS 1:1, 80.0 °C) of 100%.

Turning to `CC(=O)N[C@@H](C)C(=O)N[C@H]1Cc2ccc(cc2)-c2[nH]c3ccccc3c2C[C@@H](C(=O)N[C@@H](C)C(=O)O)NC(=O)[C@@H](NC(=O)[C@H](C)NC(C)=O)Cc2ccc(cc2)-c2[nH]c3ccccc3c2C[C@@H](C(=O)N[C@@H](C)C(=O)O)NC1=O` [Ac-Ala-Phe(4-I)-Trp-Ala-OH], in data set [1] (from Ac-Ala-Phe(4-I)-Trp-Ala-OH, 24-membered ring, Pd(OAc)2 5 mol%/AgBF4/TFA, MW 20 min, DMF, 63.0 mM, 90.0 °C), the ring closure, conversion stood at 60%.

In data set [1] (from Ac-Phe(3-I)-Asn-Gly-Arg-Trp-NH2, 20-membered ring, Pd(OAc)2 5 mol%/AgBF4/TFA, MW 20 min, DMF, 49.0 mM, 90.0 °C), `CC(=O)N[C@H]1Cc2cccc(c2)-c2[nH]c3ccccc3c2C[C@@H](C(N)=O)NC(=O)[C@H](CCCNC(=N)N)NC(=O)CNC(=O)[C@H](CC(N)=O)NC1=O` [Ac-Phe(3-I)-Asn-Gly-Arg-Trp-NH2] gave a ring closure, conversion of 77%.

`CC(=O)N[C@@H](C)C(=O)N[C@H]1Cc2ccc(O)c(c2)-c2[nH]c3ccccc3c2C[C@@H](C(=O)N[C@@H](C)C(=O)O)NC(=O)[C@H](C)NC(=O)[C@H](C)NC(=O)[C@H](C)NC1=O` [Ac-Ala-Tyr(3-I)-Ala-Ala-Ala-Trp-Ala-OH] gave a ring closure, conversion in data set [1] (from Ac-Ala-Tyr(3-I)-Ala-Ala-Ala-Trp-Ala-OH, 20-membered ring, Pd(OAc)2 5 mol%/AgBF4/2-NO2BzOH, MW 15 min, DMF:PBS 1:1, 80.0 °C) of 100%.

In data set [1] (from Ac-Ala-Tyr(3-I)-Ala-Trp-Ala-OH, 14-membered ring, Pd(OAc)2 5 mol%/AgBF4/2-NO2BzOH, MW 15 min, DMF:PBS 1:1, 80.0 °C), `CC(=O)N[C@@H](C)C(=O)N[C@H]1Cc2ccc(O)c(c2)-c2[nH]c3ccccc3c2C[C@@H](C(=O)N[C@@H](C)C(=O)O)NC(=O)[C@H](C)NC1=O` [Ac-Ala-Tyr(3-I)-Ala-Trp-Ala-OH] gave a ring closure, conversion of 100%.

As to `CC(=O)N[C@@H](C)C(=O)N[C@H]1Cc2cccc(c2)-c2[nH]c3ccccc3c2C[C@@H](C(=O)N[C@@H](C)C(=O)NCCNC(=O)CCC(=O)Nc2ccc(C3=C4C(C)=CC(C)=[N+]4[B-](F)(F)n4c(C)cc(C)c43)cc2)NC(=O)[C@H](C(C)C)NC1=O` [2j Bodipy], the “cytotoxicity (in words)” value with SH-SY5Y cells [2] was “low cytotoxicity”. Moreover, the “cellular localization / penetration (in words)” value with SH-SY5Y cells [3] (incubation 30 min at 37 °C, confocal microscopy, fluorescence) was “localized both in the membrane and in the cytoplasmatic region”. Also, the “cell staining in flow cytometry (FACS) (in words)” value in the data set with SH-SY5Y cells [3] (incubation for 30 min, 37 °C, 5% CO2, fluorescence) is recorded as “brightly stained”.

Take `CC(=O)N[C@H]1Cc2cccc(c2)-c2[nH]c3ccccc3c2C[C@@H](C(N)=O)NC(=O)[C@H](CC(=O)O)NC(=O)CNC(=O)[C@H](CCCNC(=N)N)NC1=O` [2h]: the “protection towards enzymatic degradation (in words)” value in the data set on chymotrypsin is “almost total protection”. Besides, at ανβ3 integrin receptors (preliminary cellular adhesion studies), the “selectivity ανβ3 versus ανβ5 integrin receptors (in words)” value is listed as “act selectively as antagonists for the ανβ3 in front of ανβ5 integrin receptors”.

`CC(=O)N[C@@H](C)C(=O)N[C@H]1Cc2cccc(c2)-c2[nH]c3ccccc3c2C[C@@H](C(=O)N[C@@H](C)C(=O)O)NC1=O` [Ac-Ala-Phe(3-I)-Trp-Ala-OH?]: the ring closure, conversion in data set [1] (from Ac-Ala-Phe(3-I)-Trp-Ala-OH?, 11-membered ring, Pd(OAc)2/AgBF4/TFA?) was 60%.

Compound `CC(=O)N[C@H]1Cc2cccc(c2)-c2[nH]c3ccccc3c2C[C@@H](C(N)=O)NC(=O)[C@H](CC(=O)O)NC(=O)CNC(=O)[C@H](CCCNC(=N)N)NC1=O` [Ac-Phe(3-I)-Arg-Gly-Asp-Trp-NH2] returned a ring closure, conversion in data set [1] (from Ac-Phe(3-I)-Arg-Gly-Asp-Trp-NH2, 20-membered ring, Pd(OAc)2 5 mol%/AgBF4/TFA, MW 20 min, DMF, 49.0 mM, 90.0 °C) of 70%.

In general, EC50 refers to the concentration giving half of the maximal effect. For `CC(=O)N[C@@H](Cc1cccc(I)c1)C(=O)N[C@@H](CCCNC(=N)N)C(=O)NCC(=O)N[C@@H](CC(=O)O)C(=O)N[C@@H](Cc1c[nH]c2ccccc12)C(N)=O` [1h, Ac-m-I-Phe-Arg-Gly-Asp-Trp-NH2] (Ac-[Phe(3-I)]RGDW-NH2), in the data set on chymotrypsin, the half-life came out at 52.5 min and the “protection towards enzymatic degradation (in words)” value was “completely disappeared”. On ανβ3 integrin receptors (preliminary studies, ανβ3 integrin antagonism, read-out: EC50, capacity to inhibit cellular adhesion), the EC50 was 26 µM.

In data set [1] (from Ac-Ala-Phe(3-I)-Ala-Trp-Ala-OH, 14-membered ring, Pd(OAc)2 5 mol%/AgBF4/2-NO2BzOH, MW 15 min, DMF:PBS 1:1, 80.0 °C), `CC(=O)N[C@@H](C)C(=O)N[C@H]1Cc2cccc(c2)-c2[nH]c3ccccc3c2C[C@@H](C(=O)N[C@@H](C)C(=O)O)NC(=O)[C@H](C)NC1=O` [Ac-Ala-Phe(3-I)-Ala-Trp-Ala-OH] had a ring closure, conversion of 38%.

For Ac-[Phe(3-I)]NGRW-NH2, the cleaved bond entry in the data set on α-chymotrypsin is “m-I-Phe-Asn”.

The IC50 is the concentration that gives 50% inhibition. Low values mean greater potency in that assay, high ones weaker potency in that assay. For the compound `CC(C)C[C@@H]1NC(=O)[C@H](Cc2ccc(I)cc2)NC(=O)[C@H](CC(C)C)NC(=O)[C@H](C(C)C)NC(=O)[C@H](CC(C)C)NC1=O` [compound 4] (cyclo(LLVL[Phe(4-I)])), the IC50 in data set [4] is less than 10 µM.

In the case of `CC(=O)N[C@@H](Cc1cccc(I)c1)C(=O)N[C@@H](CC(N)=O)C(=O)NCC(=O)N[C@@H](CCCNC(=N)N)C(=O)N[C@@H](Cc1c[nH]c2ccccc12)C(N)=O` [1g, Ac-m-I-Phe-Asn-Gly-Arg-Trp-NH2] (Ac-[Phe(3-I)]NGRW-NH2), in the data set with chymotrypsin, the half-life was determined as 19.8 min and the “protection towards enzymatic degradation (in words)” value is on record as “completely disappeared”.

With `CC(=O)N[C@@H](C)C(=O)N[C@H]1Cc2cccc(c2)-c2[nH]c3ccccc3c2C[C@@H](C(=O)N[C@@H](C)C(=O)O)NC(=O)[C@H](C)NC(=O)[C@H](C)NC1=O` [Ac-Ala-Phe(3-I)-Ala-Ala-Trp-Ala-OH], the ring closure, conversion in data set [1] (from Ac-Ala-Phe(3-I)-Ala-Ala-Trp-Ala-OH, 17-membered ring, Pd(OAc)2 5 mol%/AgBF4/2-NO2BzOH, MW 15 min, DMF:PBS 1:1, 80.0 °C) turned out to be 100%.

As to `CC(=O)N[C@@H](C)C(=O)N[C@H]1Cc2cccc(c2)-c2[nH]c3ccccc3c2C[C@@H](C(=O)N[C@@H](C)C(=O)O)NC(=O)[C@H](C)NC(=O)[C@H](C)NC(=O)[C@H](C)NC1=O` [Ac-Ala-Phe(3-I)-Ala-Ala-Ala-Trp-Ala-OH], in data set [1] (from Ac-Ala-Phe(3-I)-Ala-Ala-Ala-Trp-Ala-OH, 20-membered ring, Pd(OAc)2 5 mol%/AgBF4/2-NO2BzOH, MW 15 min, DMF:PBS 1:1, 80.0 °C), the ring closure, conversion was 100%.

On to `C[C@H](N)C(=O)N[C@H]1Cc2cccc(c2)-c2[nH]c3ccccc3c2C[C@@H](C(=O)N[C@@H](C)C(=O)O)NC(=O)[C@H](C)NC(=O)[C@H](CO)NC1=O` [H-Ala-Phe(3-I)-Ser-Ala-Trp-Ala-OH], for which the ring closure, conversion in data set [1] (from H-Ala-Phe(3-I)-Ser-Ala-Trp-Ala-OH, 17-membered ring, Pd(OAc)2 5 mol%/AgBF4/TFA, MW 20 min, DMF, 54.0 mM, 90.0 °C) was determined as 39%.

With `C[C@@H]1NC(=O)[C@H](CCCNC(=N)N)NC(=O)CNC(=O)[C@H](CC(N)=O)NC(=O)[C@H](C)NC(=O)[C@H](Cc2c[nH]c3ccccc23)NC1=O` [compound 3] (cyclo(ANGRAW)), the “activity against several cancer cell lines (in words)” value in data set [4] is “only the cyclopeptide 4 showed activity”.

Compound `CC(=O)N[C@@H](C)C(=O)N[C@H]1Cc2ccccc2-c2[nH]c3ccccc3c2C[C@@H](C(=O)N[C@@H](C)C(=O)O)NC1=O` [Ac-Ala-Phe(2-I)-Trp-Ala-OH?] gave a ring closure, conversion in data set [1] (from Ac-Ala-Phe(2-I)-Trp-Ala-OH?, 10-membered ring, Pd(OAc)2/AgBF4/TFA?) of 0%.
